Measured values taken from ChEMBL document CHEMBL5512612, “Novel small molecule inhibitors targeting renal cell carcinoma: Status, challenges, future directions” (Eur J Med Chem, 2024).

What was measured:
ACHN = experiment: Induction of TRAIL induced apoptosis in human ACHN cells assessed as reduction in cFLIP level; assay type: functional, cell-based
A498 [1] = experiment: Cytotoxicity against human A498 cells incubated for 48 hrs by MTT assay; assay type: functional, cell-based; conditions: A498, 48 h
[2] = molecular target: Vascular endothelial growth factor receptor 2 (Homo sapiens, UniProt P35968); experiment: Inhibition of VEGFR2 (unknown origin) by Kinase-Glo max reagent based assay
CAKI-1 = experiment: Cytotoxicity against human CAKI-1 cells incubated for 48 hrs by MTT assay; assay type: functional, cell-based; conditions: CAKI-1, 48 h
A498 [3] = experiment: Antiproliferative activity against human A498 cells; assay type: functional, cell-based
786-0 = experiment: Antiproliferative activity against human 786-0 cells; assay type: functional, cell-based

Vascular endothelial growth factor receptor 2, sequence (P35968 whole entry): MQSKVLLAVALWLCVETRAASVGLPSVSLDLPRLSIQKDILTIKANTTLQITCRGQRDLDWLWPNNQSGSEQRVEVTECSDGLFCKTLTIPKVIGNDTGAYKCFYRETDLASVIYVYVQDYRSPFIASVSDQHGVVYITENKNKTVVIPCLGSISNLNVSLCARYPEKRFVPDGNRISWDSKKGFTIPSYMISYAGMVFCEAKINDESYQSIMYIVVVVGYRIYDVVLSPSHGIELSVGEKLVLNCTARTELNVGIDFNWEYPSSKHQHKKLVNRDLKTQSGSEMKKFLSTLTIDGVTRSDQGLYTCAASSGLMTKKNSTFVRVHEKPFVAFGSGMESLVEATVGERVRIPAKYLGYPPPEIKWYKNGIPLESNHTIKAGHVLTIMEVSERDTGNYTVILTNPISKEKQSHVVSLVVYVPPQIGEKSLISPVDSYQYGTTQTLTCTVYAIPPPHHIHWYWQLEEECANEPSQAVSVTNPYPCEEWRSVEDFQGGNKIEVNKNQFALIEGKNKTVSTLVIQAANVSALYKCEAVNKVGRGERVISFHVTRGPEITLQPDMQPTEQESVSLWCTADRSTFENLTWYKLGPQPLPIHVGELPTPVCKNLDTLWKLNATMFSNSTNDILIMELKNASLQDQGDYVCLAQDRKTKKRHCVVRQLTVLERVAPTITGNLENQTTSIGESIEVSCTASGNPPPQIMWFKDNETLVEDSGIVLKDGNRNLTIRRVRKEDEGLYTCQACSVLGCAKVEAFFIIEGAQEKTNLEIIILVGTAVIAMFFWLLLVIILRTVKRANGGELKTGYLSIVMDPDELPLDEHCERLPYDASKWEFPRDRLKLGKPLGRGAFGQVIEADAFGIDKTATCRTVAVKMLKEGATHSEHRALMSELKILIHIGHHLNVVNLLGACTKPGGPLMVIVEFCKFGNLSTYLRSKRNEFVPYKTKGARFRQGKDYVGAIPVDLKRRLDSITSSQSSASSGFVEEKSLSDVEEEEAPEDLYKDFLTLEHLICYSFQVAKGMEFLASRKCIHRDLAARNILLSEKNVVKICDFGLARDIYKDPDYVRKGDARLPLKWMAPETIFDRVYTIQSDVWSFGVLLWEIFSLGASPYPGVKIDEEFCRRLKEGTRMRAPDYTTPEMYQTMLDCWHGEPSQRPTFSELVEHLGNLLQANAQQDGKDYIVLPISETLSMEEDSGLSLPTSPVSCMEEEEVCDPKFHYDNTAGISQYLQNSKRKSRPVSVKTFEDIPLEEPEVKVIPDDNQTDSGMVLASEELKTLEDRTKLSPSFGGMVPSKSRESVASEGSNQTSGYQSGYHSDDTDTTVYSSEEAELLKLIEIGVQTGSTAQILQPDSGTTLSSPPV

Structure (SMILES) | IC50 [2] [nM] | IC50 (786-0) [nM] | IC50 (A498 [3]) [nM] | other results
CC1=C(C)C(=O)O[C@@H]([C@](C)(O)[C@]2(O)CC[C@@]3(O)[C@@H]4C[C@H]5O[C@]56CC=CC(=O)[C@]6(C)[C@H]4CC[C@]23C)C1 [WITHANOLIDE E] | – | – | – | IC50 (ACHN): 1400 nM
CCN(CC)CCNC(=O)c1c(C)[nH]c(/C=C2\C(=O)Nc3ccc(F)cc32)c1C [SUNITINIB] | – | – | – | IC50 (A498 [1]): 1250 nM
CC(=O)OC[C@]12CC[C@H]3[C@@H](C[C@H]4O[C@]45CC=CC(=O)[C@]35C)[C@]1(O)CC[C@@]2(O)[C@@](C)(O)[C@H]1CC(C)=C(C)C(=O)O1 | – | – | – | IC50 (ACHN): 117 nM
CC(=O)/C(=N\Nc1ccccc1)Sc1nnc(-c2cc3ccccc3[nH]2)n1/N=C/c1ccc(C)cc1 | 75 | – | – | IC50 (A498 [1]): 2050 nM; IC50 (CAKI-1): 3230 nM
CCOC(=O)/C(=N\Nc1ccccc1)Sc1nnc(-c2cc3ccccc3[nH]2)n1/N=C/c1ccc(OC)cc1 | 77 | – | – | IC50 (A498 [1]): 640 nM; IC50 (CAKI-1): 8460 nM
O=C(Nc1ccc([N+](=O)[O-])cc1O)Nc1ccccc1Br | – | 100000 | 70000 | –
O=C(Nc1ccccc1)Nc1nc2ccccc2o1 | – | > 25000 | > 25000 | –
O=C(Nc1cccc(Cl)c1)Nc1nc2ccc([N+](=O)[O-])cc2s1 | – | 2000 | 2500 | –

Now from value to molecule, other results behind:

IC50 [2] [nM] | IC50 (786-0) [nM] | Structure (SMILES) | IC50 (A498 [3]) [nM] | other results
64 | – | COc1ccc(/C=N/n2c(-c3cc4ccccc4[nH]3)n[nH]c2=S)cc1 | – | –
34 | – | Cc1ccc(/C=N/n2c(-c3cc4ccccc4[nH]3)n[nH]c2=S)cc1 | – | –
– | 20000 | O=C(Nc1ccc(Cl)cc1)Nc1nc2ccccc2[nH]1 | 9000 | –
